Tests used:
Assay in all cases: Eurofins DiscoverX SAFETYscan off-target panel
Assay type in all cases: cell-based
androgen receptor (AR) = target: T1, androgen receptor (AR) (Homo sapiens, UniProt P10275)
T1 sequence (P10275 1-920): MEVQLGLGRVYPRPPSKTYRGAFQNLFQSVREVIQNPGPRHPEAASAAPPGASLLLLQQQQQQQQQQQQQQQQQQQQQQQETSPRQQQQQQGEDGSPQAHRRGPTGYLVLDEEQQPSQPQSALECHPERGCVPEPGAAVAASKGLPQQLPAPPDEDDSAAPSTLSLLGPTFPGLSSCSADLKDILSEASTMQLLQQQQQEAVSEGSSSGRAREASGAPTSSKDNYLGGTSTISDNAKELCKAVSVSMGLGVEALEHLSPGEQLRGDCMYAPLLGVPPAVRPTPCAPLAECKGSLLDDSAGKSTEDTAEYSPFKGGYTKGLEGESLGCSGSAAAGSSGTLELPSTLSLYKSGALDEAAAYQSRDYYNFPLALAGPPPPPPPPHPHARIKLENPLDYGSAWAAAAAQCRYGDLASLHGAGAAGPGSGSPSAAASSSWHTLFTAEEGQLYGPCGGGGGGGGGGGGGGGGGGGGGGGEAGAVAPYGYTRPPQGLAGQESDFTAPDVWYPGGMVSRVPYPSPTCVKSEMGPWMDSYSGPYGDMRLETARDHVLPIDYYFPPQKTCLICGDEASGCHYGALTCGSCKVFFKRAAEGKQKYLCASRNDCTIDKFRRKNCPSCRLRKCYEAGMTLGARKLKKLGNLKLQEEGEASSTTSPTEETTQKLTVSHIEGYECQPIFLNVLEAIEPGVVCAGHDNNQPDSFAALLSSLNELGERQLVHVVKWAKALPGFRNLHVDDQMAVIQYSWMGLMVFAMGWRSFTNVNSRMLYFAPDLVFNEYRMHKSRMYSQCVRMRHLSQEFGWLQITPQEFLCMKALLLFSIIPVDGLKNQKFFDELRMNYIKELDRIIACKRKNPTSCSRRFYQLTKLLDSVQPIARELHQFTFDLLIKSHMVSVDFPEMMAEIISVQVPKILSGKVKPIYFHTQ

HTR1A = target: T2, HTR1A (Homo sapiens, UniProt P08908)
T2 sequence (P08908 1-422): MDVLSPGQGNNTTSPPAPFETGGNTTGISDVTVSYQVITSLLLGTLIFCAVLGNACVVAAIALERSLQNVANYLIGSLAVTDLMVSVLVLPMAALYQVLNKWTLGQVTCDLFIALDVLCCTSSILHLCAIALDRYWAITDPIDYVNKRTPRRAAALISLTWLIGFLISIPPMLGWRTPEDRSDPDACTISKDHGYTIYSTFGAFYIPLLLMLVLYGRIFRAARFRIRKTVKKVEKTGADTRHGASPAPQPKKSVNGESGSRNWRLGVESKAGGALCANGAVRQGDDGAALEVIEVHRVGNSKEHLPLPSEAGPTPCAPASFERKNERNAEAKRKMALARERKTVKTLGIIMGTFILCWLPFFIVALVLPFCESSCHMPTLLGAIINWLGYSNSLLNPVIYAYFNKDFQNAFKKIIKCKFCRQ

ADRA2A = target: T3, ADRA2A (Homo sapiens, UniProt P08913)
T3 sequence (P08913 1-465): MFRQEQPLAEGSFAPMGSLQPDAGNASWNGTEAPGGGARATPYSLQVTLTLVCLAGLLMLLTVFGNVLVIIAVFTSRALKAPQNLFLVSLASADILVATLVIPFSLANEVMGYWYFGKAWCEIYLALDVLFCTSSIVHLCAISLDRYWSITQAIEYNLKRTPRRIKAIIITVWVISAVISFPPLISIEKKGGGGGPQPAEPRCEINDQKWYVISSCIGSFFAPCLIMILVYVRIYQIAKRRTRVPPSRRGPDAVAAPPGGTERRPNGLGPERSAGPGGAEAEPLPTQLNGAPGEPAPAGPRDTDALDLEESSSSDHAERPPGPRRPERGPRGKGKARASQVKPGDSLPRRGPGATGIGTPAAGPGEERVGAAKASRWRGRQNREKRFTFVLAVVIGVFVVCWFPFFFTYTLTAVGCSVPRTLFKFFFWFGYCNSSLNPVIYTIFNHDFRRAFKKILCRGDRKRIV

OPRM1 = OPRM1 (Homo sapiens, UniProt P35372)
OPRM1, sequence (P35372 whole entry): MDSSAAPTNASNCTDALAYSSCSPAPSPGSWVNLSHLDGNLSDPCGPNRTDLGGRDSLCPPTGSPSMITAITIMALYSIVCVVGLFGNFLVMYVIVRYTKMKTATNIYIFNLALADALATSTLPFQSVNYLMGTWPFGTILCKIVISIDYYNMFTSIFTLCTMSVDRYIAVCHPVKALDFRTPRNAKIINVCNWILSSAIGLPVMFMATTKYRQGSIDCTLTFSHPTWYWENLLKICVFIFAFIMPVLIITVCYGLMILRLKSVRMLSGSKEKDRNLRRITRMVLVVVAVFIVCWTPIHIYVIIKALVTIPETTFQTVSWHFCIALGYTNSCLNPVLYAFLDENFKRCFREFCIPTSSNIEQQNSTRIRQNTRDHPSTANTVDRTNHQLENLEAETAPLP

OPRD1 = OPRD1 (Homo sapiens, UniProt P41143)
OPRD1, sequence (P41143 whole entry): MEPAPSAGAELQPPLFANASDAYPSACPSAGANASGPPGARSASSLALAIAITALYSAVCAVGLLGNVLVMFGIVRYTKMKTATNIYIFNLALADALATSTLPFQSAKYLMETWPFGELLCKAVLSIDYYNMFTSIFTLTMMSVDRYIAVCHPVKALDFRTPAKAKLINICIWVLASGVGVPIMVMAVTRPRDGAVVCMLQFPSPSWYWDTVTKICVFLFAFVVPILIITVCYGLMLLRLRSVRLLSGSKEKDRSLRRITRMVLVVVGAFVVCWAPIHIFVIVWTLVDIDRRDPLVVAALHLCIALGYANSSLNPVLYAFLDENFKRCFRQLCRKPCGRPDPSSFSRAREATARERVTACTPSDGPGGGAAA

HTR2A = HTR2A (Homo sapiens, UniProt P28223)
HTR2A, sequence (P28223 whole entry): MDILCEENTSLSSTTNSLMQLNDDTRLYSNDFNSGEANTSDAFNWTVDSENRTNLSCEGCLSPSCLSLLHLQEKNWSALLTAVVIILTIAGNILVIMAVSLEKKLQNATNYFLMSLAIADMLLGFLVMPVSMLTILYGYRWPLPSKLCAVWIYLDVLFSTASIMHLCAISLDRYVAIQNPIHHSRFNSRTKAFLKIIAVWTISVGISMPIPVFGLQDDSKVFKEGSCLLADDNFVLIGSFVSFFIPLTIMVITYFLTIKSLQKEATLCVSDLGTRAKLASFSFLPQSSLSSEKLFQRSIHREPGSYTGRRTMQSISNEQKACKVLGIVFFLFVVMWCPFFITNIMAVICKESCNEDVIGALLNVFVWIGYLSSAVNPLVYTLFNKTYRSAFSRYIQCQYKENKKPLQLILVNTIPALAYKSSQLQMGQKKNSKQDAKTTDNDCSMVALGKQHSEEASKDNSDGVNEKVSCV

| SMILES | IC50 (androgen receptor (AR)) [µM] | IC50 (HTR1A) [µM] | IC50 (ADRA2A) [µM] | IC50 (OPRM1) [µM] | EC50 (OPRD1) [µM] | IC50 (HTR2A) [µM] |
| --- | --- | --- | --- | --- | --- | --- |
| CC(=O)c1ccc2c(c1)C1C=CCC1C(c1cc3c(cc1Br)OCO3)N2 (racemic) [LNS8812] | 4.8 | 2 | 2 | – | – | – |
| CC(=O)c1ccc2c(c1)[C@@H]1C=CC[C@@H]1[C@H](c1cc3c(cc1Br)OCO3)N2 (racemic) [LNS8801, 1-[(3aS,4R,9bR)-4-(6-bromo-1,3-benzodioxol-5-yl)-3a,4,5,9b-tetrahydro-3H-cyclopenta[c]quinolin-8-yl] ethanone] | – | – | – | 3.5 | 0.87 | 8.2 |
